Reference: ChEMBL document CHEMBL1201862, “PubChem BioAssay data set” (2004)
One block for each compound: values may come before it. Active and inactive are the calls of the source.

Key:
[1] = tested on: Streptococcus; assay: GAS UMAA2166 growth inhibition – luminescence, BacTiterGlo, counter-screen for streptokinase expression inhibitor project, dose response (AID 1915); assay type: functional, organism-based;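 further: potency for reduction of bacterial viability or growth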
[2] = tested on: Streptococcus sp. 'group A'; assay: Streptococcus pyogenes SK(-)GAS viability under kanamycin – luminescence, BacTiterGlo, confirmation, counter-screen for streptokinase expression inhibitor project, dose response (AID 1900); assay type: functional, organism-based
[3] = target: T1, Cytochrome P450 1A2 (Homo sapiens, UniProt P05177);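 further: PubChem cytochrome P450 panel assay, CYP1A2 panel member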
T1 sequence (P05177 whole entry): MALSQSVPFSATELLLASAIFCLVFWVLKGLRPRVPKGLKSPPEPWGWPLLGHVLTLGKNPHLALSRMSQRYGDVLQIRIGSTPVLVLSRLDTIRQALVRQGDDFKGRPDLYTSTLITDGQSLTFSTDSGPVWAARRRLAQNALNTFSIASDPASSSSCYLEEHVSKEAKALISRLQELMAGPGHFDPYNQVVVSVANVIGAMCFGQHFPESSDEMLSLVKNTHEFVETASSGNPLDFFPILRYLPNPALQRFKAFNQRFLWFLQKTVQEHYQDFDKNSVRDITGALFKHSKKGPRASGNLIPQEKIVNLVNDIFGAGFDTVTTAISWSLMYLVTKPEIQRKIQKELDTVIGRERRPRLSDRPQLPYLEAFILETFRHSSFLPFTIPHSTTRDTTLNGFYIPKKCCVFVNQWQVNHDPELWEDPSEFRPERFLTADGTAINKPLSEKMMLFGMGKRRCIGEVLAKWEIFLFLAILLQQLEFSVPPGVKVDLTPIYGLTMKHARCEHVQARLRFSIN

[4] = target: Cytochrome P450 2C9 (Homo sapiens, UniProt P11712)
Cytochrome P450 2C9, sequence (P11712 whole entry): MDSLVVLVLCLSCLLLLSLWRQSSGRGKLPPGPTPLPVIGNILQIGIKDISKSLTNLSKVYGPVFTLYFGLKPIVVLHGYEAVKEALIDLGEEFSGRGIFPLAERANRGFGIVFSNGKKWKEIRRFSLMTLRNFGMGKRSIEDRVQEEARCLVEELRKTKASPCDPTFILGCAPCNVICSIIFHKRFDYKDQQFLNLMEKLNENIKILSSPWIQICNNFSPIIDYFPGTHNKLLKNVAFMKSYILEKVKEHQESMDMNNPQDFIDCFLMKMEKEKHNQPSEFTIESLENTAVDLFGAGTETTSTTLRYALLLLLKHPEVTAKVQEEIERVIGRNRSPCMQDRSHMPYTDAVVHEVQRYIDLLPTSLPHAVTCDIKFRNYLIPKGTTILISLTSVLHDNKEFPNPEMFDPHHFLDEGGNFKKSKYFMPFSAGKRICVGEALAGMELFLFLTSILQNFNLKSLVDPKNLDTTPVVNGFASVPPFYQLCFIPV

[5] = target: Cytochrome P450 3A4 (Homo sapiens, UniProt P08684);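 further: CYP3A4 tested as one member of a cytochrome P450 panel screen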
Cytochrome P450 3A4, sequence (P08684 whole entry): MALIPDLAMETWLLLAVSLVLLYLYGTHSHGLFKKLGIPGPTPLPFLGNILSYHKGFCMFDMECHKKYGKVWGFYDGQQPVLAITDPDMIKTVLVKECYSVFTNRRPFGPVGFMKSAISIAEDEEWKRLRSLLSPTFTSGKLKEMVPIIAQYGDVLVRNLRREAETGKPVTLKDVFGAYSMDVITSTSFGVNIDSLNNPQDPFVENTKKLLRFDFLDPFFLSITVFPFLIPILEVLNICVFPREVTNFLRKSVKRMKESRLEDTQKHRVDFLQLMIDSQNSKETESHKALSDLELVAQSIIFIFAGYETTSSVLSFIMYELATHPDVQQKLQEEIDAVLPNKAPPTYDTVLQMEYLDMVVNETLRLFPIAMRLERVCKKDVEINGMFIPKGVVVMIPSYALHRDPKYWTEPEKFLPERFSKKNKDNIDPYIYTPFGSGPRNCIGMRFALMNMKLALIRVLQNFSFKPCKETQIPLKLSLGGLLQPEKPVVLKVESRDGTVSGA

[6] = NIH3T3 cell viability loss – ATP luminescence, mouse fibroblasts, counter-screen, dose response (AID 2010); assay type: functional, cell-based;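 further: cells exposed to compound for about 90 hours before reading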
[7] = Trypanosoma cruzi growth suppression in host cells – NIH3T3 host cells, beta-gal luminescence, confirmation (AID 2044); assay type: functional, cell-based;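 further: intracellular parasites grown in NIH/3T3 mouse fibroblasts as host cells; luminescent beta-galactosidase reporter signal from transgenic T. cruzi replicating inside host cells; inhibitors lower the luminescence signal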
[8] = target: Cytochrome P450 2C19 (Homo sapiens, UniProt P33261); assay: Cytochrome panel assay with activity outcomes. Panel member name: p450-cyp2c19 Compounds with AC50 equal or less than 10 uM are considered active; assay type: functional; settings: read-out: AC50
Cytochrome P450 2C19, sequence (P33261 whole entry): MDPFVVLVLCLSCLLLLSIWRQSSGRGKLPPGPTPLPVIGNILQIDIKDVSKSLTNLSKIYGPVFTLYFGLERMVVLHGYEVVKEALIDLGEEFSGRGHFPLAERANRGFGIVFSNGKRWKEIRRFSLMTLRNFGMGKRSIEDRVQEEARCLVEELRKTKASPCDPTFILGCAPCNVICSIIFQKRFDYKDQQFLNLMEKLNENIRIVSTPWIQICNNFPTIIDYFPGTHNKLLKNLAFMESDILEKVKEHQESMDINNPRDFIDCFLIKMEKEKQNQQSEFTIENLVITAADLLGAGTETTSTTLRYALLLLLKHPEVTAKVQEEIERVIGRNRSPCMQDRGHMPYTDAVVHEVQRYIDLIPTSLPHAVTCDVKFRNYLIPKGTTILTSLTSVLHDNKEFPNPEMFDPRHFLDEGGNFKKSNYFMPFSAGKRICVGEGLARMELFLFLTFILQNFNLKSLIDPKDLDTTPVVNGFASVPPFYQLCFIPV

[9] = target: T2, Corticotropin-releasing factor receptor 2/Corticotropin-releasing factor-binding protein (Homo sapiens, UniProt P24387+Q13324); assay: activators of CRF receptor 2 with binding protein – uHTS hits, confirmation (AID 602473); assay type: functional; settings: read-out: EC50_Mean
T2 sequence (Q13324 whole entry): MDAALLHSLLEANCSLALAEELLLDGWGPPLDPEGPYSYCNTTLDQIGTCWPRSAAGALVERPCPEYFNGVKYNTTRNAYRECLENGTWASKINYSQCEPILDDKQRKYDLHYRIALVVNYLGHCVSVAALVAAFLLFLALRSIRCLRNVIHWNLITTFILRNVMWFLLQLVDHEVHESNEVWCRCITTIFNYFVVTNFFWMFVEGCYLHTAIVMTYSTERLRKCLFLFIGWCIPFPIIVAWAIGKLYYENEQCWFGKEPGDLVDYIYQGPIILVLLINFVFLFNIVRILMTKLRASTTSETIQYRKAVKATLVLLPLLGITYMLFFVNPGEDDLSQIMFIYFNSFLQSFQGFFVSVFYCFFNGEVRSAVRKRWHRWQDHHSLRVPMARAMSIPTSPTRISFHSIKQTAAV
T2 sequence (P24387 whole entry): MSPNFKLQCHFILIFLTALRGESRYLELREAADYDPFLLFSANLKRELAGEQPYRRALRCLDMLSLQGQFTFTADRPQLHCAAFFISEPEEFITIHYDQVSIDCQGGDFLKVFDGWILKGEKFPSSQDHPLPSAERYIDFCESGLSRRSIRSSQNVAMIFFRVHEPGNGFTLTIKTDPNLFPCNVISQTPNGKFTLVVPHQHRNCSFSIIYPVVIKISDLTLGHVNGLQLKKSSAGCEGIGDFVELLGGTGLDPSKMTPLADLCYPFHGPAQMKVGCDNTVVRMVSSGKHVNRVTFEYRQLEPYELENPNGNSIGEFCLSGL

[10] = luciferase reporter signal suppression in cells – H4 neuroglioma cells, luminescence, dose response (AID 1990); assay type: functional, cell-based

Structure (SMILES): COc1ccccc1C(=O)NNC(=O)C(=O)Nc1ccc(C)c(Cl)c1
EC50 [1]: 3.87 µM (active)
EC50 [2]: 1.73 µM (active)

Structure (SMILES): CCc1sc(-c2c(C#N)c(N)nc3c2CCCCCC3)cc1[N+](=O)[O-]
AC50 [4]: 2.82 µM (inconclusive)

Structure (SMILES): COc1cccc(Nc2ncc3nc(-c4cccs4)c(=O)n(Cc4cccs4)c3n2)c1
AC50 [3]: 2 µM (inconclusive)

Structure (SMILES): Cc1ccc(-c2cc(C(F)F)n3ncc(C(=O)N4CCN(c5ccccn5)CC4)c3n2)cc1
EC50 [6]: > 60 µM (not active)
EC50 [7]: 0.5 µM (active)

Structure (SMILES): COc1ccc(NC(=O)CC#N)cc1OC
AC50 [8]: 0.00501 µM (inconclusive)

Structure (SMILES): Cc1cccc(Nc2nc(-c3ccncc3)cs2)c1
EC50 [6]: 6.1 µM (active)
EC50 [7]: 0.154 µM (active)

Structure (SMILES): CCOC(=O)CNS(=O)(=O)c1cc(-c2nn(C)c(=O)c3ccccc23)ccc1C
AC50 [5]: 39.8 µM (inconclusive)

Structure (SMILES): Cc1cccc(N(CC(=O)NC2CCCC2)C(=O)c2cc3cc4cccc(C)c4nc3s2)c1C
EC50 [6]: > 60 µM (not active)
EC50 [7]: 1.6 µM (active)

Structure (SMILES): Cc1cccc(NC(=O)c2cccc(Cn3cc(Br)c([N+](=O)[O-])n3)c2)c1C
EC50 [6]: 39 µM (active)
EC50 [7]: 0.834 µM (active)

Structure (SMILES): O=C(OCC(=O)N1N=C(c2ccc(Cl)cc2)CC1c1ccco1)c1ccco1 (stereo unspecified)
EC50 [9]: > 53 µM (inactive)

Structure (SMILES): Clc1ccc2c(c1)N(CCCN1CCCC13CCCCC3)c1ccccc1S2
AC50 [8]: 5.01 µM (inconclusive)

Structure (SMILES): CN1CCN(/N=C/c2ccc(-c3ccc([N+](=O)[O-])cc3)o2)CC1
EC50 [6]: > 60 µM (not active)
EC50 [7]: 1.11 µM (active)

Structure (SMILES): CC1CC(C)CN(C/C=C/c2ccccc2[N+](=O)[O-])C1 (stereo unspecified)
AC50 [3]: 14.1 µM (inconclusive)
AC50 [4]: 1.58 µM (inconclusive)
AC50 [5]: 25.1 µM (inconclusive)

Structure (SMILES): C=CCNc1cnn(-c2ccc(C)cc2)c(=O)c1Cl
AC50 [3]: 28.2 µM (inconclusive)

Structure (SMILES): FC(F)(F)c1nc2ccc(SSc3ccc4nc(C(F)(F)F)[nH]c4c3)cc2[nH]1
AC50 [3]: 0.501 µM (inconclusive)
AC50 [4]: 7.94 µM (inconclusive)

Structure (SMILES): COc1ccc(OC)c(NC(=O)c2cc3n(n2)C(C(F)(F)F)CC(c2ccc4c(c2)OCO4)N3)c1 (stereo unspecified)
AC50 [4]: 0.794 µM (inconclusive)

Structure (SMILES): Clc1ccc(OCCCCCN2CCCC2)c(Br)c1
EC50 [6]: 10.9 µM (active)
EC50 [7]: 0.231 µM (active)

Structure (SMILES): CCc1ccc(OCC(=O)OC2CCS(=O)(=O)C2)cc1 (stereo unspecified)
AC50 [3]: 12.6 µM (inconclusive)

Structure (SMILES): Cc1ccc(C)c(N2CCN(C(=O)c3ccc(Cn4c(=S)[nH]c5ccc(N6CCOCC6)cc5c4=O)cc3)CC2)c1
EC50 [6]: > 60 µM (not active)
EC50 [7]: 0.458 µM (active)

Structure (SMILES): O=C(Nc1nnc(C2=COCCO2)o1)c1ccc(Br)cc1
EC50 [1]: 5.47 µM (active)
EC50 [2]: 1.9 µM (active)

Structure (SMILES): CCc1ccc(OCCNC(=O)c2ccccc2SCc2ccc(F)cc2)cc1
EC50 [6]: > 60 µM (not active)
EC50 [7]: 2.67 µM (active)

Structure (SMILES): CC(C)(CO)N1CCN(C(S)=Nc2ccccc2)CC1
AC50 [3]: 6.31 µM (inconclusive)

Structure (SMILES): CCCCCCc1cc2cc(C(=O)NCc3ccccc3)c(=N)oc2cc1O
EC50 [9]: 4.2 µM (active)

Structure (SMILES): Cc1ccc(C(=O)N/N=C/c2cn(Cc3ccccc3)c3ccccc23)cn1
EC50 [10]: 7.88 µM (active)

Structure (SMILES): COc1c(F)c(F)c(C(=O)O)c(Nc2ccc(C)cc2)c1F
AC50 [3]: 22.4 µM (inconclusive)

Structure (SMILES): CCCNC(=O)OC[C@@H]1O[C@H](CCO/N=C2\c3cc(OC)ccc3O[C@H](c3cccc(OC)c3)[C@H]2O)C=C[C@@H]1Oc1ccc(OC)cc1
AC50 [4]: 6.31 µM (inconclusive)

Structure (SMILES): COc1ccc(-c2cc3ncnc(Cl)c3s2)cc1
EC50 [1]: 26 µM (active)
EC50 [2]: 9.73 µM (active)

Structure (SMILES): O=C(Cn1cnc2cc([N+](=O)[O-])ccc2c1=O)Nc1ccccc1-c1ccccc1
EC50 [6]: > 30 µM (not active)
EC50 [7]: 0.629 µM (active)

Structure (SMILES): COc1ccccc1CN1CCCC(C(=O)c2ccccc2SC)C1 (stereo unspecified)
EC50 [6]: > 60 µM (not active)
EC50 [7]: 1.6 µM (active)

Second part, the compound after the results:

AC50 [3]: 25.1 µM (inconclusive)
AC50 [4]: 22.4 µM (inconclusive)
Structure (SMILES): COc1cc2c(C(=O)N3CCN(C)CC3)c(C)n(-c3ccccc3)c2cc1Br

AC50 [4]: 6.31 µM (inconclusive)
AC50 [5]: 3.16 µM (inconclusive)
Structure (SMILES): COc1ccc(-c2csc3c2[N+]2=CCC=C2C3[O-])cc1 (stereo unspecified)

AC50 [3]: 15.8 µM (inconclusive)
AC50 [5]: 11.2 µM (inconclusive)
Structure (SMILES): O=C(CSCc1ccccc1Cl)NNC(=O)c1ccccc1

AC50 [4]: 11.2 µM (inconclusive)
AC50 [5]: 20 µM (inconclusive)
Structure (SMILES): Cc1nc(SC2CC(=O)N(c3ccc([N+](=O)[O-])cc3)C2=O)nc2c1CCCC2 (stereo unspecified)

AC50 [3]: 20 µM (inconclusive)
Structure (SMILES): CN1CCCC2(CCN(S(=O)(=O)c3ccccc3)CC2)C1

AC50 [4]: 7.94 µM (inconclusive)
AC50 [5]: 8.91 µM (inconclusive)
Structure (SMILES): COc1ccc2c(c1)C(=O)N(Cc1ccco1)C(=O)/C2=C\Nc1c(C)n(C)n(-c2ccccc2)c1=O

AC50 [3]: 39.8 µM (inconclusive)
AC50 [5]: 0.0316 µM (inconclusive)
Structure (SMILES): N[C@H](C(=O)O)[C@H](O)C(=O)O

AC50 [5]: 2.24 µM (inconclusive)
Structure (SMILES): N#C/C(=C\c1cc([N+](=O)[O-])c(N2CCCCC2)cc1N1CCCCC1)c1nn(-c2ccccc2)c(N)c1C#N

AC50 [8]: 31.6 µM (inconclusive)
Structure (SMILES): CC1(C)Cc2ccccc2C(NNC(=O)c2ccncc2)=N1

AC50 [3]: 25.1 µM (inconclusive)
AC50 [4]: 20 µM (inconclusive)
Structure (SMILES): CC(=O)Nc1cccc(NC(=O)C2CCCN2C(=O)Nc2ccccc2C)c1 (stereo unspecified)

EC50 [9]: > 53 µM (inactive)
Structure (SMILES): CCCn1c(SCC(=O)N2CC(=O)Nc3ccccc32)nc2ccccc21

AC50 [8]: 39.8 µM (inconclusive)
AC50 [3]: 20 µM (inconclusive)
Structure (SMILES): COC(=O)[C@@]1(Cc2ccc(F)cc2)[C@H]2c3cc(C(=O)N4CCCC4)n(Cc4ccccn4)c3C[C@H]2CN1C(=O)c1ccccc1

AC50 [8]: 15.8 µM (inconclusive)
AC50 [3]: 14.1 µM (inconclusive)
Structure (SMILES): COc1ccc(CC(=N)NOC(=O)Cc2ccccc2)cc1OC

AC50 [3]: 31.6 µM (inconclusive)
Structure (SMILES): CCCCCCCC(=O)O[C@H](CC(=O)O)C[N+](C)(C)C [OCTANOYLCARNITINE]

AC50 [3]: 8.91 µM (inconclusive)
Structure (SMILES): O=C(CCC(=O)OCc1ccc(C(=O)Oc2ccccc2)cc1)Nc1cccc2ccccc12

AC50 [5]: 31.6 µM (inconclusive)
Structure (SMILES): OCCNCCCOc1cccc(Cl)c1Cl

AC50 [8]: 20 µM (inconclusive)
Structure (SMILES): CS(=O)(=O)N1CCC2(CC1)CN(c1ccncc1)C2

AC50 [4]: 39.8 µM (inconclusive)
Structure (SMILES): Cn1c(=O)c(-c2cccs2)nc2cncnc21

EC50 [9]: 12.7 µM (active)
Structure (SMILES): COc1ccc(CN2CCSCC2)cc1C

AC50 [4]: 7.94 µM (inconclusive)
AC50 [5]: 28.2 µM (inconclusive)
Structure (SMILES): CC(=O)c1cccc(NC(=O)CSCc2ccccc2)c1

EC50 [9]: 14 µM (active)
Structure (SMILES): CCC1CCCCN1Cc1ccc(OC)c(C)c1 (stereo unspecified)

AC50 [8]: 22.4 µM (inconclusive)
Structure (SMILES): Cc1n[nH]c(C)c1S(=O)(=O)N1CCC(C(=O)O)CC1

AC50 [3]: 14.1 µM (inconclusive)
AC50 [5]: 0.708 µM (inconclusive)
Structure (SMILES): CCc1nnc2sc(-c3ccc(NC(=O)c4ccco4)cc3)nn12

AC50 [4]: 6.31 µM (inconclusive)
Structure (SMILES): O=[N+]([O-])c1ccc([C@@H](Nc2ccccc2)c2ccc3cccnc3c2O)cc1

AC50 [4]: 20 µM (inconclusive)
Structure (SMILES): CCNCc1cc(OCC)c(OCC(=O)NCCc2ccccc2)cc1Cl

AC50 [5]: 3.98 µM (inconclusive)
Structure (SMILES): C=CC[C@@H]1C=C[C@@H](O/N=C\C[C@@H]2C=C[C@H](OC(C)=O)[C@H](COC(C)=O)O2)[C@@H](CO)O1

AC50 [4]: 0.251 µM (inconclusive)
Structure (SMILES): CN(C)c1ncc2nc(-c3ccc(F)cc3)c(=O)n(C3CC3)c2n1

AC50 [3]: 10 µM (inconclusive)
AC50 [4]: 12.6 µM (inconclusive)
AC50 [5]: 22.4 µM (inconclusive)
Structure (SMILES): Cc1nnc(C)n1/N=C/c1ccc(-c2ccccc2)cc1
